Source: US20150079105A1, “TREATMENT OF ACUTE INFLAMMATION IN THE RESPIRATORY TRACT” (UCL Business PLC, priority 2012, published 2015)
“Also recorded” adds a separate entry of the source.

How the values were obtained:
LPS challenged mice = assay: LPS-induced acute lung inflammation in mice: BAL fluid cell counts, MPO, serum albumin; assay type: in vivo
CCL7, Gr-1+ neutrophils = assay: Immunohistochemical staining of CCL7 and Gr-1 in lung sections of LPS challenged mice; assay type: in vivo; details: 5 mg/kg 30 min after LPS; lungs fixed after 3 h
Protocol: FIG. 16. Mice were challenged with 125 μg/kg LPS (i.n.) and whole lungs inflated and fixed after 3 h. Immunohistochemical staining of CCL7 (a, b an c) or Gr-1 (d, e and f) was compared between saline treated controls and LPS challenged mice with or without treatment with the PAR1 antagonist RWJ-58259 (5 mg/kg) dosed therapeutically after 30 min. [AEW]. Endothelial-epithelial barrier disruption was measured by ELISA as the amount of serum albumin in BAL fluid from mice three hours after LPS (125 μg/kg i.n.) challenge (g) or S. pneumoniae challenge (h) with and without the PAR1 antagonist RWJ-58259 (5 mg/kg) dosed therapeutically i.p. after 30 min.
The observation that neutrophil migration downstream of PAR1 activation was mediated by the non-classical neutrophil chemokine, CCL7, was unexpected. In order to determine the cellular source of CCL7 the immunolocalization of CCL7 and Gr-1+ neutrophils in serial lung sections from saline treated and LPS-challenged mice was examined. In saline treated control lung, there was weak CCL7 staining which was mainly restricted to the bronchial epithelium (FIG. 16a). […] Only weak immunolocalization was detected in the alveolar epithelium. […] Gr-1 specific immunostaining was next performed in order to detect neutrophils in serial lung sections. No Gr-1 staining could be detected in saline treated controls (FIG. 16d). […]

[1] = 5 mg/kg i.p. 30 min after LPS 125 μg/kg i.n., 3 h after LPS, vs LPS alone
[2] = 5 mg/kg i.p. 30 min after LPS, 3 h

In the case of NCC[C@H](NC(=O)[C@H](Cc1ccc(F)c(F)c1)NC(=O)Nc1ccc2c(CN3CCCC3)nn(Cc3c(Cl)cccc3Cl)c2c1)C(=O)NCc1ccccc1 [RWJ-58259], the “neutrophil numbers in the airspaces (BAL fluid)” value (LPS challenged mice; [1]) is reported as “significantly decreased”, the “total cell numbers in the airspaces (BAL fluid)” value (LPS challenged mice; [1]) is reported as “significantly decreased” and the “Gr-1+(F4/80−) neutrophils recovered from BAL fluid and whole lung preparations, flow cytometry” value (LPS challenged mice; [2]) is reported as “a decrease”. For the same compound, the “LPS-induced neutrophil myeloperoxidase activity in lung homogenates” value (LPS challenged mice; [2]) was “reduced”, the “macrophage numbers in BAL fluid” value (LPS challenged mice; [2]) was “remained unchanged” and the “serum albumin levels in BAL fluid (alveolar-capillary barrier disruption)” value (LPS challenged mice; 5 mg/kg i.p. 30 min after LPS, 3 h, vs LPS alone, listed as PAR1 antagonist) was “significantly decreased; also recorded: significantly reduced”. For the same compound, the neutrophil recruitment (LPS challenged mice; 5 mg/kg i.p. 30 min after LPS, 6 h following LPS challenge) was “reduced”, the neutrophil recruitment (LPS challenged mice; 5 mg/kg i.p. 30 min after LPS, 24 h following LPS challenge) was “reduced” and the “Gr-1 immunoreactivity in lung sections” value (CCL7, Gr-1+ neutrophils) was “decreased”. For the same compound, the “LPS-induced CCL7 immunoreactivity in lung sections” value (CCL7, Gr-1+ neutrophils) was “reduced”.
